target: Prothrombin (Homo sapiens) (UniProt P00734); assay: Apparent association constant towards thrombin.

Row | K ass | Compound
1 | 510000 l M-1 | O=C(c1ccc(O[C@@H]2CCCC[C@H]2N2CCCC2)cc1)c1c(-c2ccc(OCCN3CCCC3)cc2)sc2ccccc12
2 | 1.17e+06 l M-1 | O=C(c1ccc(O[C@@H]2CCCC[C@H]2N2CCCCC2)cc1)c1c(-c2ccc(OCCN3CCCC3)cc2)sc2ccccc12
3 | 2.18e+08 l M-1 | Oc1ccc2c(Cc3ccc(O[C@@H]4CCCC[C@H]4N4CCCC4)cc3)c(-c3ccc(OCCN4CCCC4)cc3)sc2c1
4 | 5.11e+07 l M-1 | CN(C)[C@@H]1CCCC[C@H]1Oc1ccc(Cc2c(-c3ccc(OCCN4CCCC4)cc3)sc3cc(O)ccc23)cc1
5 | 4.98e+07 l M-1 | CCN(CC)[C@@H]1CCCC[C@H]1Oc1ccc(Cc2c(-c3ccc(OCCN4CCCC4)cc3)sc3cc(O)ccc23)cc1
6 | 6.84e+07 l M-1 | Oc1ccc2c(Cc3ccc(O[C@@H]4CCCC[C@H]4N4CCCC4)c(C(F)(F)F)c3)c(-c3ccc(OCCN4CCCC4)cc3)sc2c1
7 | 2.8e+08 l M-1 | Oc1ccc2c(Cc3ccc(O[C@@H]4CCCC[C@H]4N4CCCC4)c(Br)c3)c(-c3ccc(OCCN4CCCC4)cc3)sc2c1
8 | 3.83e+06 l M-1 | COc1ccc2c(Cc3ccc(O[C@@H]4CCCC[C@H]4N4CCCCC4)cc3)c(-c3ccc(OCCN4CCCC4)cc3)sc2c1
9 | 1.39e+07 l M-1 | Oc1ccc2sc(-c3ccc(OCCN4CCCC4)cc3)c(Cc3ccc(OC4CCCC[C@H]4N4CCCCC4)cc3)c2c1 (stereo partly drawn)
10 | 4.73e+07 l M-1 | Oc1ccc2c(Cc3ccc(O[C@@H]4CCC[C@H]4N4CCCCC4)cc3)c(-c3ccc(OCCN4CCCC4)cc3)sc2c1

Second part, the compound before the results:

Row | Compound | K ass
11 | c1ccc2c(Cc3ccc(O[C@@H]4CCCC[C@H]4N4CCCCC4)cc3)c(-c3ccc(OCCN4CCCC4)cc3)sc2c1 | 2.04e+07 l M-1
12 | COc1cc(Cc2c(-c3ccc(OCCN4CCCC4)cc3)sc3cc(O)ccc23)ccc1O[C@@H]1CCCC[C@H]1N(C)C | 1.46e+08 l M-1
13 | Oc1ccc2c(Cc3ccc(O[C@@H]4CCCC[C@H]4N4CCCC4)c(F)c3)c(-c3ccc(OCCN4CCCC4)cc3)sc2c1 | 1.21e+08 l M-1
14 | Oc1ccc2c(Cc3ccc(O[C@@H]4CCCC[C@H]4N4CCOCC4)cc3)c(-c3ccc(OCCN4CCCC4)cc3)sc2c1 | 1.81e+07 l M-1
15 | O=C(c1ccc(O[C@@H]2CCCC[C@H]2N2CCCCCC2)cc1)c1c(-c2ccc(OCCN3CCCC3)cc2)sc2ccccc12 | 490000 l M-1
16 | Oc1ccc2c(Cc3ccc(O[C@@H]4CCCC[C@H]4N4CCCCCC4)cc3)c(-c3ccc(OCCN4CCCC4)cc3)sc2c1 | 7.48e+07 l M-1
17 | Oc1cccc2c(Cc3ccc(O[C@@H]4CCCC[C@H]4N4CCCCC4)cc3)c(-c3ccc(OCCN4CCCC4)cc3)sc12 | 1.08e+06 l M-1
18 | Oc1cccc2sc(-c3ccc(OCCN4CCCC4)cc3)c(Cc3ccc(O[C@@H]4CCCC[C@H]4N4CCCCC4)cc3)c12 | 1.73e+06 l M-1
19 | COc1ccc2sc(-c3ccc(OCCN4CCCC4)cc3)c(Cc3ccc(O[C@@H]4CCCC[C@H]4N4CCCCC4)cc3)c2c1 | 3.65e+07 l M-1
20 | COc1cccc2c(Cc3ccc(O[C@@H]4CCCC[C@H]4N4CCCCC4)cc3)c(-c3ccc(OCCN4CCCC4)cc3)sc12 | 118000 l M-1
21 | Oc1ccc2c(Cc3ccc(O[C@@H]4CCCC[C@H]4N4CCCCC4)nc3)c(-c3ccc(OCCN4CCCC4)cc3)sc2c1 | 9.61e+07 l M-1
22 | COc1cc(Cc2c(-c3ccc(OCCN4CCCC4)cc3)sc3cc(O)ccc23)ccc1O[C@@H]1CCCC[C@H]1N1CCCC1 | 3.09e+08 l M-1
23 | Oc1ccc2c(Cc3ccc(O[C@@H]4CCCC[C@H]4N4CCCC4)c(O)c3)c(-c3ccc(OCCN4CCCC4)cc3)sc2c1 | 1.12e+07 l M-1
24 | Oc1ccc2c(Cc3ccc(O[C@@H]4CCCC[C@H]4N4CCCCC4)c(F)c3)c(-c3ccc(OCCN4CCCC4)cc3)sc2c1 | 2.03e+08 l M-1
25 | Oc1ccc2c(Cc3ccc(O[C@@H]4CCCC[C@H]4N4CCCCC4)cc3)c(-c3ccc(OCCN4CCCC4)cc3)sc2c1 | 2.12e+08 l M-1
26 | COc1cc(Cc2c(-c3ccc(OCCN4CCCC4)cc3)sc3cc(O)ccc23)ccc1O[C@@H]1CCCC[C@H]1N1CCCCC1 | 1.16e+08 l M-1
27 | Cc1cc(Cc2c(-c3ccc(OCCN4CCCC4)cc3)sc3cc(O)ccc23)ccc1O[C@@H]1CCCC[C@H]1N1CCCC1 | 3.49e+08 l M-1
28 | Oc1ccc2c(Cc3ccc(O[C@@H]4CCCC[C@H]4n4ccnc4)cc3)c(-c3ccc(OCCN4CCCC4)cc3)sc2c1 | 8.08e+06 l M-1
